Here are results for 14 compounds from patent publication US20090069320A1, “Substituted 4-Amino-Quinazoline Compounds with Metabotropic Glutamate Receptor Regulating Activity and Uses Thereof” (Gruenenthal GmbH, priority 2006, published 2009).

The target of the experiment is T1, mGluR5 receptor (Sus scrofa, UniProt I3LUI7).
T1 construct: 450 μg of protein from brain homogenate with 5 nM ^3[H]-MPEP; from tissue; host or cells: pig brain halves without medulla, cerebellum and pons
T1 sequence (I3LUI7 19-1212): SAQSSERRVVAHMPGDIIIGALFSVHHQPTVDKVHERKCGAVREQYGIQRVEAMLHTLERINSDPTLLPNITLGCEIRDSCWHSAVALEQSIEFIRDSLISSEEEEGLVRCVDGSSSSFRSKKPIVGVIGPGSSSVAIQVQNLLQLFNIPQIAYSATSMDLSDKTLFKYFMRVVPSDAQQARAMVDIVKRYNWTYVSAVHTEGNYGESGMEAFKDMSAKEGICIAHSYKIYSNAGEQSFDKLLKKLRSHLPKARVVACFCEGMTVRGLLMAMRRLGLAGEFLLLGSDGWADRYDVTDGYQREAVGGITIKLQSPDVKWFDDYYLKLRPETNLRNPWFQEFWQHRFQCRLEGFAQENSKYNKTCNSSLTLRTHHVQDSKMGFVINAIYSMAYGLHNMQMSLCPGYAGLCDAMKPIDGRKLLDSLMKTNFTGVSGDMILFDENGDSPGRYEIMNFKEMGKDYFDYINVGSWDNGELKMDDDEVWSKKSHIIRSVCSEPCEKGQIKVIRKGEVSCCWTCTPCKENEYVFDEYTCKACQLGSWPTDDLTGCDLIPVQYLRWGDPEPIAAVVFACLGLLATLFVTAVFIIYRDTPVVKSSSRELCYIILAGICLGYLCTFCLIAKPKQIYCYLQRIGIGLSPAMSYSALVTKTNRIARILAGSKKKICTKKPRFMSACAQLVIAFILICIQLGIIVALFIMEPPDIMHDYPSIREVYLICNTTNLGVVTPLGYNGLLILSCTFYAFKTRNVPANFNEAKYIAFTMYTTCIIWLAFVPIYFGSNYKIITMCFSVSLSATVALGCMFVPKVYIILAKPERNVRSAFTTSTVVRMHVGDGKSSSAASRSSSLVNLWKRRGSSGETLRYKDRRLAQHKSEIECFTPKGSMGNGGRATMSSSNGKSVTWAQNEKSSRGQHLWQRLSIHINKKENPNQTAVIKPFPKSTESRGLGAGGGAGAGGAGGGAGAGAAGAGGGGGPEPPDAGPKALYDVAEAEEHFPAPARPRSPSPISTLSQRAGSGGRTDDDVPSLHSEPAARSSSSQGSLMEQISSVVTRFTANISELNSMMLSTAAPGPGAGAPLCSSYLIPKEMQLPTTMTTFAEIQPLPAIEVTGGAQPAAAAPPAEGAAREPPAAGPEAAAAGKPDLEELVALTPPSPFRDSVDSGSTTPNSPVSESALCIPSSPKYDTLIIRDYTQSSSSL
The experiment can be described thus: [3H]-MPEP mGluR5 receptor binding assay (pig brain homogenate). To be noted: 10 μM compound, 5 nM [3H]-MPEP, read-out: % Inhibition of mGluR5 Receptor (pig) [^3H]-MPEP Bond at 10 μM. As to the method:
I. Method for Determining the Inhibition of the [^3H]-MPEP Bond in the mGluR5 Receptor Binding Assay
Pig brain homogenate is produced by homogenizing (Polytron PT 3000, Kinematica AG, 10 000 rpm for 90 seconds) pig brain halves without medulla, cerebellum and pons in pH 8.0 buffer (20 mM Hepes, Sigma, order no. H3375+1 complete tablet, 100 ml, Roche Diagnostics, order no. 1836145) in the ratio of 1:20 (brain weight/volume) and differential centrifuging at 900×g and 40 000×g. In incubation batches of 250 μl in 96-well microtitre plates 450 μg of protein from brain homogenate with 5 nM ^3[H]-MPEP (Tocris, order no. R1212) (MPEP=[…]) and the compounds to be examined (10 μM in test) in buffer (as above) are respectively incubated at room temperature for 60 minutes.
The batches are then filtered using a Brandel cell harvester (Brandel, Robotic 9600) on unifilter plates with fibreglass filter mats (Perkin Elmer, order no. 6005177) and then washed with buffer (as above) 3-times each with 250 μl per sample. The filter plates are then dried for 60 mins. at 55° C. Then, 30 μL of Ultima Gold™ scintillator (Packard BioScience, order no. 6013159) are added per well and after 3 hours the samples are measured on the β-counter (MicroBeta, Perkin Elmer). The non-specific binding is determined by adding 10 μM of MPEP (Tocris, order no. 1212).
With `CCCN(Cc1cccc(-c2ccc3ncnc(Nc4ccccc4)c3c2)c1)C(=O)c1ccco1` [Example 120, furan-2-carboxylic acid [3-(4-phenylamino-quinazolin-6-yl)-benzyl]-propyl-amide], the inhibition (as a rule, the relative decrease from the control value, in per cent) at 10 µM stood at 48%.

In the case of `O=C(c1ccccc1Br)N(Cc1cccc(-c2ccc3ncnc(N4CCCC4)c3c2)c1)C1CC1` [Example 122, 2-bromo-N-cyclopropyl-N-[3-(4-pyrrolidin-1-yl-quinazolin-6-yl)-benzyl]-benzamide], the inhibition at 10 µM stood at 37%. In the case of `O=C(c1cc2ccccc2cn1)N(Cc1cccc(-c2ccc3ncnc(N4CCCC4)c3c2)c1)C1CC1` [Example 125, isoquinoline-3-carboxylic acid cyclopropyl-[3-(4-pyrrolidin-1-yl-quinazolin-6-yl)-benzyl]-amide], the inhibition at 10 µM was found to be 30%. `N#CCC(=O)N(Cc1cccc(-c2ccc3ncnc(N4CCCC4)c3c2)c1)C1CC1` [Example 133, 2-cyano-N-cyclopropyl-N-[3-(4-pyrrolidin-1-yl-quinazolin-6-yl)-benzyl]-acetamide]: the inhibition at 10 µM came out at 50%. The figure for `Cc1ccc(C(=O)N(Cc2cccc(-c3ccc4ncnc(N5CCCC5)c4c3)c2)C2CC2)cc1` [Example 134, N-cyclopropyl-4-methyl-N-[3-(4-pyrrolidin-1-yl-quinazolin-6-yl)-benzyl]-benzamide] is 58%.

For `O=C(c1ccccc1C(F)(F)F)N(Cc1cccc(-c2ccc3ncnc(N4CCCC4)c3c2)c1)C1CC1` [Example 135, N-cyclopropyl-N-[3-(4-pyrrolidin-1-yl-quinazolin-6-yl)-benzyl]-2-trifluoromethyl-benzamide], the inhibition at 10 µM worked out at 32%. As for `COc1ccc(C(=O)N(Cc2cccc(-c3ccc4ncnc(N5CCCC5)c4c3)c2)C2CC2)cc1` [Example 142, N-cyclopropyl-4-methoxy-N-[3-(4-pyrrolidin-1-yl-quinazolin-6-yl)-benzyl]-benzamide], the inhibition at 10 µM stood at 51%.

In the case of `O=C(c1ccccc1Cl)N(Cc1cccc(-c2ccc3ncnc(N4CCCC4)c3c2)c1)C1CC1` [Example 143, 2-chloro-N-cyclopropyl-N-[3-(4-pyrrolidin-1-yl-quinazolin-6-yl)-benzyl]-benzamide], the inhibition at 10 µM worked out at 71%. Under `O=C(COc1ccccc1)N(Cc1cccc(-c2ccc3ncnc(N4CCCC4)c3c2)c1)C1CC1` [Example 145, N-cyclopropyl-2-phenoxy-N-[3-(4-pyrrolidin-1-yl-quinazolin-6-yl)-benzyl]-acetamide] stands 53%; under `CCCC(=O)N(Cc1ccccc1)Cc1cccc(-c2ccc3ncnc(NC(C)C)c3c2)c1` [Example 148, N-benzyl-N-[3-(4-isopropylamino-quinazolin-6-yl)-benzyl]-butyramide], 40%; under `CC(C)Nc1ncnc2ccc(-c3cccc(CN(Cc4ccccc4)C(=O)c4ccco4)c3)cc12` [Example 149, furan-2-carboxylic acid benzyl-[3-(4-isopropylamino-quinazolin-6-yl)-benzyl]-amide], 32%. As for `CC(C)Nc1ncnc2ccc(-c3cccc(CN(Cc4ccccc4)C(=O)c4ccccc4Cl)c3)cc12` [Example 150, N-benzyl-2-chloro-N-[3-(4-isopropylamino-quinazolin-6-yl)-benzyl]-benzamide], the inhibition at 10 µM turned out to be 40%.

On to `CC(C)Nc1ncnc2ccc(-c3cccc(CN(Cc4ccccc4)C(=O)c4ccncc4)c3)cc12` [Example 151, N-benzyl-N-[3-(4-isopropylamino-quinazolin-6-yl)-benzyl]-isonicotinamide], for which the inhibition at 10 µM came out at 66%.

Regarding `O=C(c1ccc(C(F)(F)F)cc1F)N(Cc1ccccc1)Cc1cccc(-c2ccc3ncnc(NC4CC4)c3c2)c1` [Example 152, N-benzyl-N-[3-(4-cyclopropylamino-quinazolin-6-yl)-benzyl]-2-fluoro-4-trifluoromethyl-benzamide], the inhibition at 10 µM was determined as 45%.
